Assay results as given in PubChem BioAssay AID248 (DTP/NCI, 2004).
Several values for one entry are separate records, joined by “and”; a condition that tells them apart may be missing. Equal entries are not always repeated. Toxic doses and inconclusive results are not listed. No stated cut-off is given here; in the data, active means T/C of 150% or more; inactive means T/C below 125%.

Test system: L1210 leukemia ip in BDF1 mice, survival T/C
Test: NCI In Vivo Anticancer Drug Screen. Data for tumor model L1210 Leukemia (intraperitoneal) in B6D2F1 (BDF1) mice
Settings: endpoint: mean survival time, higher = longer survival
Procedure, shortened: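 Transplantable tumor model; survival measured in treated vs vehicle control mice. Value = treated/control.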

[1] = dose: 100.0 mg/kg/injection, schedule: Q01DX009 (ip), vehicle: Klucel (hydroxypropylcellulose) (HPC)
[2] = dose: 100.0 mg/kg/injection, schedule: Q01DX009 (ip), vehicle: saline with Tween-80
[3] = dose: 100.0 mg/kg/injection, schedule: Q04DX003 (ip), vehicle: Klucel (hydroxypropylcellulose) (HPC)
[4] = dose: 100.0 mg/kg/injection, schedule: Q04DX003 (ip), vehicle: saline with Tween-80
[5] = dose: 200.0 mg/kg/injection, schedule: Q01DX009 (ip), vehicle: Klucel (hydroxypropylcellulose) (HPC)
[6] = dose: 200.0 mg/kg/injection, schedule: Q01DX009 (ip), vehicle: saline with Tween-80
[7] = dose: 200.0 mg/kg/injection, schedule: Q04DX003 (ip), vehicle: Klucel (hydroxypropylcellulose) (HPC)
[8] = dose: 200.0 mg/kg/injection, schedule: Q04DX003 (ip), vehicle: saline with Tween-80
[9] = dose: 400.0 mg/kg/injection, schedule: Q01DX009 (ip), vehicle: Klucel (hydroxypropylcellulose) (HPC)
[10] = dose: 400.0 mg/kg/injection, schedule: Q04DX003 (ip), vehicle: Klucel (hydroxypropylcellulose) (HPC)
[11] = dose: 400.0 mg/kg/injection, schedule: Q04DX003 (ip), vehicle: saline with Tween-80

Measured: T/C

Cc1nc2[nH]c(=O)[nH]c(=O)c2nc1C
inactive: dose: 16.0 mg/kg/injection, schedule: Q01DX Z (ip), vehicle: methylcellulose (MC) 100 % of control | dose: 31.0 mg/kg/injection, schedule: Q01DX Z (ip), vehicle: methylcellulose (MC) 95 % of control | dose: 62.0 mg/kg/injection, schedule: Q01DX Z (ip), vehicle: methylcellulose (MC) 87 % of control | dose: 100.0 mg/kg/injection, schedule: Q01DX001 (ip), vehicle: other 104 % of control | dose: 100.0 mg/kg/injection, schedule: Q04DX003 (ip), vehicle: other 96 % of control | dose: 125.0 mg/kg/injection, schedule: Q01DX Z (ip), vehicle: methylcellulose (MC) 92 % of control and 93 % of control | dose: 200.0 mg/kg/injection, schedule: Q01DX001 (ip), vehicle: other 107 % of control | dose: 200.0 mg/kg/injection, schedule: Q04DX003 (ip), vehicle: other 104 % of control | dose: 250.0 mg/kg/injection, schedule: Q01DX Z (ip), vehicle: methylcellulose (MC) 89 % of control | dose: 400.0 mg/kg/injection, schedule: Q01DX001 (ip), vehicle: other 102 % of control | dose: 400.0 mg/kg/injection, schedule: Q04DX003 (ip), vehicle: other 96 % of control | dose: 500.0 mg/kg/injection, schedule: Q01DX Z (ip), vehicle: methylcellulose (MC) 89 % of control

CCOC(=O)c1c(Cl)c(Cl)c(Cl)c(Cl)c1C(=O)OCC
inactive: [1] 105 % of control | [2] 101 % of control | [3] 90 % of control | [4] 100 % of control | [5] 104 % of control | [6] 90 % of control | [7] 95 % of control | [8] 104 % of control | [9] 100 % of control | dose: 400.0 mg/kg/injection, schedule: Q01DX009 (ip), vehicle: saline with Tween-80 93 % of control | [10] 105 % of control | [11] 102 % of control

COC(=O)CC[N+]12CN3CN(CN(C3)C1)C2
inactive: dose: 100.0 mg/kg/injection, schedule: Q01DX001 (ip), vehicle: saline 91 % of control | dose: 100.0 mg/kg/injection, schedule: Q04DX003 (ip), vehicle: saline 106 % of control | dose: 200.0 mg/kg/injection, schedule: Q01DX001 (ip), vehicle: saline 100 % of control | dose: 200.0 mg/kg/injection, schedule: Q04DX003 (ip), vehicle: saline 106 % of control | dose: 400.0 mg/kg/injection, schedule: Q01DX001 (ip), vehicle: saline 96 % of control | dose: 400.0 mg/kg/injection, schedule: Q04DX003 (ip), vehicle: saline 105 % of control

CC1(COC(=O)Nc2cccc3ccccc23)CC2C=CC1C2 (stereo not drawn)
inactive: dose: 75.0 mg/kg/injection, schedule: Q01DX001 (ip), vehicle: saline with Tween-80 96 % of control | dose: 150.0 mg/kg/injection, schedule: Q01DX001 (ip), vehicle: saline with Tween-80 91 % of control | dose: 300.0 mg/kg/injection, schedule: Q01DX001 (ip), vehicle: saline with Tween-80 88 % of control

Nc1cccc2c1C(=O)c1cccc(NC(=O)c3ccccc3)c1C2=O
inactive: dose: 6.25 mg/kg/injection, schedule: Q01DX009 (ip), vehicle: Klucel (hydroxypropylcellulose) (HPC) 89 % of control | dose: 12.5 mg/kg/injection, schedule: Q01DX009 (ip), vehicle: Klucel (hydroxypropylcellulose) (HPC) 92 % of control | dose: 25.0 mg/kg/injection, schedule: Q01DX009 (ip), vehicle: Klucel (hydroxypropylcellulose) (HPC) 89 % of control | dose: 50.0 mg/kg/injection, schedule: Q01DX009 (ip), vehicle: Klucel (hydroxypropylcellulose) (HPC) 108 % of control | [1] 95 % of control | [3] 96 % of control | [5] 95 % of control | [7] 91 % of control | [9] 99 % of control | [10] 90 % of control

CC1CCCCC12OCCO2 (stereo not drawn)
inactive: [2] 97 % of control | [4] 101 % of control | [6] 91 % of control | [8] 93 % of control | [11] 97 % of control

CCOC(=O)CNc1ccc(Br)cc1
inactive: dose: 100.0 mg/kg/injection, schedule: Q04DX002 (ip), vehicle: Klucel (hydroxypropylcellulose) (HPC) 108 % of control | dose: 200.0 mg/kg/injection, schedule: Q04DX002 (ip), vehicle: Klucel (hydroxypropylcellulose) (HPC) 108 % of control

CCOC(=S)SCc1ccc([N+](=O)[O-])cc1
inactive: dose: 100.0 mg/kg/injection, schedule: Q04DX002 (ip), vehicle: gum acacia 97 % of control | dose: 200.0 mg/kg/injection, schedule: Q04DX002 (ip), vehicle: gum acacia 100 % of control | dose: 400.0 mg/kg/injection, schedule: Q04DX002 (ip), vehicle: gum acacia 97 % of control
